Experimental data from patent publication US6713527B2, “Anaesthetic bone cement” (Queen's University at Kingston, priority 1997, dated 2004).
Counter-ions that a name gives are not always drawn.

Key:
[1] = Elution/release of anaesthetic from DePuy bone cement discs (Example 2); assay type: physicochemical; conditions: for anaesthetic released over 72 hours, percentage of amount incorporated / anaesthetic released after 72 h, percentage of amount incorporated: discs in 0.2% saline, 37° C.; for effect of particle size on release profile: crystals 75 to 150 um, 150 to 250 um, >250 um, 72 hours
Text: Crystalline lidocaine base from three manufacturers (Sigma, Spectrum, and Wyckoff) was used in these studies. It was observed that the relative proportions of crystals of different size varied substantially among the three brands. Thus, an initial study compared the effect of crystal size on elution and release characteristics using Spectrum lidocaine base. Crystals were sorted using a series of molecular sieves into three groups (small, 75 to 150 um; medium, 150 to 250 um; and large, >250 um) and 2.0 g samples from each group were incorporated into bone cement and tested, as indicated below.
All studies adhered to the following procedure: Forty grams of bone cement (DePuy CMW3 unless otherwise specified) were mixed with 2.0, 0.5, 0.05, or 0.005 g of liquid or crystalline anaesthetic (lidocaine: Sigma, Spectrum, Wyckoff; prilocaine: Colour Your Enzyme, Queen's University, Kingston, Ontario, Canada). The polymerization initiated mixtures were formed into discs 50 mm×1 mm and allowed to cure. The cured discs were then placed in a solution (100 ml) containing 0.2% saline, and kept at 37° C. in a shaking water bath. 1 ml aliquots were taken at 0, 1, 2, 3, 4, 6, 24, 48 and 72 hours and to each was added 1 μg/ml bupivacaine as an internal standard. 50 μl aliquots were subjected to HPLC using a Beckman reverse phase column having a mobile phase of 40 mM ammonium phosphate:acetonitrile (60:40) and a flow rate of 1 ml/min, followed by electrochemical detection, to determine the amount of anaesthetic in each sample.
The percentage of anaesthetic released was calculated from the mass of the bone cement/anaesthetic mixture: anaesthetic (e.g., 0.05 g)+bone cement powder (40 g)+bone cement liquid (17.9 g)=57.95 g. The mean mass of bone cement discs in an individual experiment was, for example, 3.75 g, which corresponds to 15.45 discs per mixture. For elution of, for example, 1000 ug after 72 hours, 1000 ug×15.45 discs=0.015 g anaesthetic released. Since 0.05 g anaesthetic was used, 30.9% was released.

[2] = Elution of lidocaine from bone cement discs (Example 1); assay type: physicochemical; conditions: Zimmer or DePuy cement, 0.2% saline, 37° C.
Procedure: Forty grams of bone cement powder from each of three manufacturers: Howmedica (Simplex), Zimmer (Osteobond) and DePuy (CMW3), were mixed with 0.5, 1.0 and 2.0 g of gas-sterilized crystalline lidocaine base (Xylocaine, Astra Pharmaceuticals). The polymerization initiated mixtures were formed into discs 50 mm×1 mm and allowed to harden. The hardened discs were then placed in a stirred solution (100 ml) containing 0.2% saline at 37° C. 100 μl aliquots were taken at 1, 2, 3, 4, 6, 24, 48 and 72 hours and subjected to HPLC with electrochemical detection analysis to determine the lidocaine level in each sample.

[3] = lidocaine added to CMW3 vs CMW3
Procedure: Lidocaine (Xylocaine, Astra Pharmaceuticals) was combined with DePuy CMW3 bone cement as described in Example 1, and mechanical properties including dough time, setting time, exotherm, compressive strength, flexural strength, flexural modulus, and impact strength were analyzed.

[4] = eluted from Howmedica bone cement; knee surgery of Example 3
[5] = 0.05 g anaesthetic per 40 g DePuy CMW3 bone cement, HCl
[6] = 2.0 g anaesthetic per 40 g DePuy CMW Endurance bone cement
[7] = 0.5, 1.0, 2.0 g per 40 g Howmedica

For `CCN(CC)CC(=O)Nc1c(C)cccc1C` [liquid lidocaine HCl, lidocaine HCl], the “anaesthetic released over 72 hours, percentage of amount incorporated” value [1, 5] was 0.3%.
With `CCN(CC)CC(=O)Nc1c(C)cccc1C` [crystalline lidocaine HCl, lidocaine HCl] the “anaesthetic released over 72 hours, percentage of amount incorporated” value [1, 5] was “about 25%”, the “anaesthetic released over 72 hours, percentage of amount incorporated” value ([1]; 0.05 g anaesthetic per 40 g DePuy CMW3 bone cement, listed as lidocaine HCl, HCl) was “about 25%” and the “anaesthetic released over 72 hours, percentage of amount incorporated” value ([1]; 0.5 g anaesthetic per 40 g DePuy CMW3 bone cement) was “about 33%”. The “anaesthetic released after 72 h, percentage of amount incorporated” value ([1]; 0.5 g anaesthetic per 40 g DePuy CMW Endurance bone cement) was 23% and the “effect of particle size on release profile” value ([1]; DePuy CMW3, HCl) was “Smaller particles eluted faster”.
In the case of `CCCNC(C)C(=O)Nc1ccccc1C` (centres unmarked) [liquid prilocaine base, prilocaine], the “anaesthetic released after 72 h, percentage of amount incorporated” value [1, 6] was “about 0.3%” and the “initial release of anaesthetic” value ([1]; 2.0 g in DePuy CMW3, compared with crystalline prilocaine base and both forms of lidocaine base (FIG. 4)) was “greatest”.
For `CCCNC(C)C(=O)Nc1ccccc1C` (centres unmarked) [crystalline prilocaine base, prilocaine], the “anaesthetic released after 72 h, percentage of amount incorporated” value [1, 6] was “about 0.4%”.
With `CCN(CC)CC(=O)Nc1c(C)cccc1C` [crystalline lidocaine base, lidocaine] the “amount eluted in relation to amount in the mixture” value [2, 7] was “proportional to the amount of lidocaine in the mixture”, the “period of maximum rate of elution” value [2, 7] was “first 24 hours” and the “time of peak dose in elution curve” value [2, 7] was ~6 h. The “period of sustained release” value ([2]; test period, Howmedica) was 72 h, the “anaesthetic released over 72 hours, percentage of amount incorporated” value ([1]; 2.0 g anaesthetic per 40 g DePuy CMW3 bone cement) was “about 1%” and the “anaesthetic released after 72 h, percentage of amount incorporated” value [1, 6] was “about 0.3%”. For the same compound, the “anaesthetic released over the 72 hour period, percentage of amount incorporated” value ([1]; 2.0 g sieved crystals, all size groups (75 to 150 um, 150 to 250 um, >250 um), DePuy CMW3) was “about 1%”, the “effect of particle size on release profile” value ([1]; DePuy CMW3) was “no effect of particle size” and the “effect on compressive strength, flexural strength or flexural modulus” value [3] was “little effect”. The “improvement of impact strength” value [3] was “about 10%”, the “increase of cement setting time” value [3] was “about 40%” and the “increase of doughing time, factor” value [3] was 3. For the same compound, the “persistence of analgesic effect” value [4] was “at least 24 hours” and the “time from application of bone cement to analgesic effect” value [4] was ≤ 6 h.
